Read-outs that look alike come from different tables or passages of the source.
What was measured:
HCT116/VM46 = test: cells; type: cell-based, human
Description: Compounds were tested for their cell growth inhibition of L1210 (ATCC no. CCL-219, mouse lymphocytic leukemia), HCT116 (ATCC no. CCL-247, human colorectal carcinoma), and HCT116/VM46 (a vinblastine-resistant strain of HCT116) cells in culture. A population of cells (>1×10^6 cells/mL as determined with a hemocytometer) was diluted with Dulbecco's Modified Eagle Medium (DMEM, Gibco) containing 10% fetal bovine serum (FBS, Gibco) to give a final concentration of 30,000 cells/mL. To each well of a 96-well plate (Corning® Costar®) was added 100 μL of the cell media solution with a multichannel pipet. The cultures were incubated at 37° C. in an atmosphere of 5% CO2 and 95% humidified air for 24 hours.
The test compounds were then added to the plate as follows: test compounds were diluted in DMSO to a concentration of 1 mM. 10-Fold serial dilutions in DMSO were next performed on a separate 96-well plate. Fresh culture media (100 μL) was added to each well of cells resulting in 200 μL of medium per well followed by 2 μL of each test agent. Compounds were tested in duplicate (n=2-8 times) at six concentrations between 0-1000 nM or 0-10000 nM. Following the addition of compound, cultures were incubated for an additional 72 hours.
The plates were incubated at 37° C. for 5 minutes (L1210) or 15 min (HCT116 and HCT116/VM46). After the given incubation time, 50 μL of 0.1 N NaOH was added to each well and the absorption at 405 nm was determined using a 96 well plate reader. […]

HCT116 = test: cells; type: cell-based, human
In short: (§1)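 Compound exposure ran 72 h at six concentrations (0–1000 nM or 0–10000 nM, duplicate) on cells plated at 30,000 cells/mL in 10% FBS DMEM. A closing 37 °C incubation took 15 min (HCT116) or 5 min (L1210).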

L1210 = test: cells; type: cell-based, mouse
In short: as §1

Tubulin = settings: FIG. 2; competitive ligand 18 μM
Description: Control studies were performed with BODIPY-VBL in the absence of a competitive ligand (control 1, maximum FI enhancement) and in the absence of tubulin (control 2, no FI enhancement). Percent (%) BODIPY-VBL displacement was calculated by the formula: (control 1 FI−experiment FI)/(Control 1 FI−Control 2 FI)×100%. Reported values are the average of 5 measurements±SD.

A549 = test: cells; type: cell-based, human; settings: read-out: IC50 A549
Text: (§2) 2001, 98:11737; Kavallaris et al., Brit. J. Cancer. 1999, 80:1020; and Kavallaris et al., J. Clin. Invest. 1997, 100:1282]. As a result, the comparison of cell growth inhibition of candidate drugs against A549 vs A549-T24 has been used to characterize potential resistance due to increased expression of class III β-tubulin [Goncalves et al., Proc. Natl. Acad. Sci. USA. 2001, 98:11737; Kavallaris et al., Brit. J. Cancer. 1999, 80:1020; and Kavallaris et al., J. Clin. Invest. 1997, 100:1282].

A549-T24 = test: cells; type: cell-based, human
Text: as §2

[1] = table in Background, C20′ substituent X, read-out: IC50, HCT116/VM46
[2] = table in Background, C20′ substituent X, read-out: IC50, HCT116
[3] = Table 5, read-out: IC50 HCT116/VM46

CCC1C[C@H]2CN(CCc3c([nH]c4ccccc34)[C@@](C(=O)OC)(c3cc4c(cc3OC)N(C)[C@H]3[C@@](O)(C(=O)OC)[C@H](OC(C)=O)[C@]5(CC)C=CCN6CC[C@]43[C@@H]65)C2)C1 (some centres unmarked) [Compound 4, reference compound]
IC50 (HCT116/VM46; [1]): 600 nM | IC50 (HCT116; [2]): 60 nM

CC[C@]1(N=[N+]=[N-])C[C@H]2CN(CCc3c([nH]c4ccccc34)[C@@](C(=O)OC)(c3cc4c(cc3OC)N(C)[C@H]3[C@@](O)(C(=O)OC)[C@H](OC(C)=O)[C@]5(CC)C=CCN6CC[C@]43[C@@H]65)C2)C1 [Compound 5, 20′-azidovinblastine]
IC50 (HCT116/VM46; [1]): 5500 nM | IC50 (HCT116; [2]): 690 nM

CC[C@]1(N)C[C@H]2CN(CCc3c([nH]c4ccccc34)[C@@](C(=O)OC)(c3cc4c(cc3OC)N(C)[C@H]3[C@@](O)(C(=O)OC)[C@H](OC(C)=O)[C@]5(CC)C=CCN6CC[C@]43[C@@H]65)C2)C1 [Compound 6, 20′-aminovinblastine]
IC50 (HCT116/VM46; [1]): > 10000 nM | IC50 (HCT116; [2]): 600 nM

CCC1(NC(=O)c2ccccc2)CC2CN(CCc3c([nH]c4ccccc34)C(C(=O)OC)(c3cc4c(cc3OC)N(C)C3C(O)(C(=O)OC)C(OC(C)=O)C5(CC)C=CCN6CCC43C65)C2)C1 (centres unmarked) [Compound 24]
IC50 (L1210; Table 2): 1.1 nM | potency relative to saturated cyclohexyl counterpart Compound 20 (more potent) (HCT116): > 50 fold | IC50 (HCT116; Table 2, read-out: IC50 HCT116): 0.8 nM | potency relative to vinblastine (more potent) (HCT116; vinblastine-sensitive cell lines): > 5 fold | percent (%) displacement of tubulin-bound BODIPY-vinblastine (Tubulin): 72±4%

CC[C@]1(NC(=O)c2ccc(C#N)cc2)C[C@H]2CN(CCc3c([nH]c4ccccc34)[C@@](C(=O)OC)(c3cc4c(cc3OC)N(C)[C@H]3[C@@](O)(C(=O)OC)[C@H](OC(C)=O)[C@]5(CC)C=CCN6CC[C@]43[C@@H]65)C2)C1 [Compound 54]
IC50 (L1210; Table 2): 4.4 nM | IC50 (HCT116; Table 2, read-out: IC50 HCT116): 3.1 nM | percent (%) displacement of tubulin-bound BODIPY-vinblastine (Tubulin): 56±5%

CCC1(NC(=O)c2ccc(NC(C)=O)cc2)CC2CN(CCc3c([nH]c4ccccc34)C(C(=O)OC)(c3cc4c(cc3OC)N(C)C3C(O)(C(=O)OC)C(OC(C)=O)C5(CC)C=CCN6CCC43C65)C2)C1 (centres unmarked) [Compound 58]
IC50 (A549): 0.17 nM | IC50 (A549-T24): 0.13 nM | IC50 (L1210): 0.06 nM | IC50 (L1210; Table 2): 1.6 nM | IC50 (HCT116; Table 2, read-out: IC50 HCT116): 0.8 nM | IC50 (HCT116; read-out: IC50 HCT116): 0.07 nM

CCC1(NC(=O)c2ccc(NC(=O)OC(C)(C)C)cc2)CC2CN(CCc3c([nH]c4ccccc34)C(C(=O)OC)(c3cc4c(cc3OC)N(C)C3C(O)(C(=O)OC)C(OC(C)=O)C5(CC)C=CCN6CCC43C65)C2)C1 (centres unmarked) [Compound 60]
IC50 (A549): 0.19 nM | IC50 (A549-T24): 0.09 nM | IC50 (L1210): 0.06 nM | IC50 (L1210; Table 2): 0.3 nM | IC50 (HCT116; Table 2, read-out: IC50 HCT116): 0.3 nM | IC50 (HCT116; read-out: IC50 HCT116): 0.07 nM

CC[C@]1(NC(=O)c2ccc(NS(C)(=O)=O)cc2)C[C@H]2CN(CCc3c([nH]c4ccccc34)[C@@](C(=O)OC)(c3cc4c(cc3OC)N(C)[C@H]3[C@@](O)(C(=O)OC)[C@H](OC(C)=O)[C@]5(CC)C=CCN6CC[C@]43[C@@H]65)C2)C1 [Compound 61]
IC50 (A549): 0.53 nM | IC50 (A549-T24): 0.26 nM | IC50 (L1210): 0.06 nM | IC50 (L1210; Table 2): 0.4 nM | IC50 (HCT116; Table 2, read-out: IC50 HCT116): 0.3 nM | IC50 (HCT116; read-out: IC50 HCT116): 0.07 nM

CC[C@]1(NC(=O)c2ccc(N(C)C)cc2)C[C@H]2CN(CCc3c([nH]c4ccccc34)[C@@](C(=O)OC)(c3cc4c(cc3OC)N(C)[C@H]3[C@@](O)(C(=O)OC)[C@H](OC(C)=O)[C@]5(CC)C=CCN6CC[C@]43[C@@H]65)C2)C1 [Compound 64]
IC50 (L1210; Table 2): 0.18 nM | IC50 (HCT116; Table 2, read-out: IC50 HCT116): 0.18 nM | percent (%) displacement of tubulin-bound BODIPY-vinblastine (Tubulin): 88±5%

CCC1(NC(=O)c2cn(C)cn2)CC2CN(CCc3c([nH]c4ccccc34)C(C(=O)OC)(c3cc4c(cc3OC)N(C)C3C(O)(C(=O)OC)C(OC(C)=O)C5(CC)C=CCN6CCC43C65)C2)C1 (centres unmarked) [Compound 142]
IC50 (HCT116/VM46; [3]): > 1000 nM | IC50 (L1210; Table 5): 80 nM | IC50 (HCT116; Table 5, read-out: IC50 HCT116): 50 nM

CCC1(NC(=O)C2CCNCC2)CC2CN(CCc3c([nH]c4ccccc34)C(C(=O)OC)(c3cc4c(cc3OC)N(C)C3C(O)(C(=O)OC)C(OC(C)=O)C5(CC)C=CCN6CCC43C65)C2)C1 (centres unmarked) [Compound 146]
IC50 (HCT116/VM46; [3]): > 10000 nM | IC50 (L1210; Table 5): 4200 nM | IC50 (HCT116; Table 5, read-out: IC50 HCT116): > 10000 nM
